Results published in patent publication US20070027175A1, “Antineoplastic activities of ellipticine and its derivatives” (priority 2005, published 2007).
“Also recorded” adds a separate entry of the source.

Key:
[1] = test system: human fetal bone mesenchymal cells; assay: Morphology of mesenchymal cells in co-culture; assay type: cell-based; conditions: co-culture without direct contact; EPED3 2 mM, Velcade 0.5 mM
Procedure: FIGS. 11A-11F compare the morphological features of EPED3 and Velcade induced apoptosis in myeloma cells and normal mesenchymal cells. JJN3 myeloma cell line and human fetal bone mesenchymal cells were co-cultured without direct contact between cell types. EPED3 (2 mM) and Velcade (0.5 mM) were added to the cultures; control cells were untreated. Live cell cultures were photographed 3 days after initiating treatment (400× magnification under Olympus invert-microscope with RT-Color SPOT digital camera and the software, Diagnostic Instrument Inc. Sterling Heights, Mich.). In comparison to cell morphology of non-treated JJN3 cells, myeloma cells were destroyed under both EPED3 (FIG. 11E) and Velcade (FIG. 11F) treatments as the appearance of cell shrinkage, and the formation of phagozytosed apoptotic bodies (arrows); in comparison to no treatment, mesenchymal cells were also destroyed by Velcade treatment as the appearance of cell shrinkage, and the formation of phagozytosed apoptotic bodies (arrows) (FIG. 1C) but not by EPED3 treatment (FIG. 11B).
The monolayer human fetal bone mesenchymal cells were established from live bone chips (Advanced Bioscience Resources Inc, Alameda, Calif.) in complete RPMI-1640 medium. The medium was the same as described above. The cells were trypsinized and seeded in 6-well plates, and then allowed to reach 75% confluence. […]

U266 cells = assay: MTT dose response to anti-myeloma agents, U266; assay type: cell-based, human; conditions: 24 and 48 hours
Procedure: FIGS. 12A-12B show dose response of myeloma cells to common anti-myeloma agents used in clinics. U266 was one of 4 myeloma cell lines exposed to a panel of anti-myeloma agents in 2-fold titration ([…]). MTT assays were performed to assess cell proliferation inhibition for 24 hours (FIG. 12A) and 48 hours (FIG. 12B). […] Error bars indicate standard deviation.
Myeloma cells were suspended in fresh medium at […] and seeded into 96-well plates in 50-μl aliquots (10,000 cells/well). After treating cells in each well with the appropriate compound (50-μl aliquots of 2× stock solution) and medium control, the methylthiazolyldiphenyl-tetrazolium bromide (MTT) assay kit (Promega, Madison, Wis.) was used to determine cell proliferation, according to manufacturer's instructions. Briefly, dye solution was added to each well (15 μl/well) and incubated for 4 hours at 37° C. and 5% CO2; 100 μl of the solubilization solution/stop mix was then added. The plates were read at 570 nm in a plate reader, and the A570 nm values were corrected by A650 nm. All experiments were conducted in triplicate.
In vitro comparison of EPED3 to ellipticine and four anti-myeloma agents commonly used in clinical treatment regimens was carried out with four myeloma cell lines (JJN3, L363, OCI-MY5, and U266). EPED3, ellipticine, Dox, dexamethasome, VP-16-213, and Velcade were applied in a two-fold dilution series ranging from 0.1 to 6.4 μM. Cell proliferation was assessed using MTT assays 24 and 48 hours after initiating treatments.

[2] = NCI in vivo screening data; cited from earlier work
[3] = test system: myeloma cell lines ARK, KMS11, RPMI 8226, and U266; assay: In vitro screening of DTP compounds on myeloma cell lines (CellTiter-Glo); assay type: cell-based, human; design: effect on myeloma cell growth among tested ellipticine derivatives: dose or concentration left out as unconfirmed
Procedure: Eight myeloma cell lines were contacted with the antineoplastic agents to be tested in ninety six well culture plates. […]
Myeloma cell lines were maintained at >90% viability at 37° C. and 5% CO2. Cells were diluted to 20,000 cells/ml in fresh medium. A 50-μl aliquot of cell suspension was seeded in 96-well tissue culture plates to final cell counts of 1,000 cells/well. All compounds obtained from NCI's Developmental Therapeutics Program (DTP compounds) were dissolved in 100% dimethylsulfoxide (DMSO) (Sigma-Aldrich, St. Louis, Mo.) at 1 mg/ml and further diluted in fresh medium to 1 μg/ml. Each compound (50-μl aliquots) was distributed to a well containing 1,000 myeloma cells. Each plate included controls with addition of only medium or only DMSO (0.5% final concentration). All experiments were conducted in triplicate.
Using CellTiter-Glo Luminescent Assay kit (Promega, Madison, Wis.) according to manufacturer's instructions, cell viability was assayed every 24 hours after addition of DTP compound for 5 days. Briefly, the CellTiter-Glo substrate was dissolved in buffer, and 100 μl was added to each well. […] The statistic sampling distribution for each compound per cell line was based on sample of n=15 measurements.
Other ellipticine derivatives from the DTP (at 0.5 mM final concentration) were used to screen the same four myeloma cell lines.

[4] = 50 mg/kg; intraperitoneal injection; P388 Leukemia-bearing CD2F1 mice; cited from earlier work

SMILES | morphological damage of mesenchymal cells [1] | concentration of efficient killing of U266 cells (U266 cells; without co-culture, MTT) | dosages for animals surviving the toxicity of the compounds [2] | inhibition of cell viability in four myeloma cell lines ([3]; 0.5 mg/ml, every 24 hours over 5 days) | effect on myeloma cell growth among tested ellipticine derivatives ([3]; four myeloma cell lines) | effective invitro dosage (cell growth inhibition) ([3]; myeloma cell lines) | animals survived EPED3 toxicity for at least 5 days [4] | concentration with better efficacy on reduction of cell metabolic activity (U266 cells; U266) | concentration at which cell proliferation stopped (U266 cells; U266, MTT)
CC(C)C[C@H](NC(=O)[C@H](Cc1ccccc1)NC(=O)c1cnccn1)B(O)O [Velcade, bortezomib, reference compound] | severe destruction of the mesenchymal cells | less than 0.1 μM | – | – | – | – | – | – | –
Cc1c2ccncc2c(C)c2c1[nH]c1ccc(OCCN(C)C)cc12 [NSC 338258, ellipticine, 9-dimethyl amino-ethoxy-] | – | – | 25.0 mg/kg body weight | most significantly inhibited cell viability; also recorded: significant anti-myeloma effect | best among the tested ellipticine derivatives | 0.2 µM | five out of six | ≥ 0.4 µM | 0.2 µM
